{
  "source": "ChEMBL document CHEMBL5390310",
  "about": "“Rapid PROTAC Discovery Platform: Nanomole-Scale Array Synthesis and Direct Screening of Reaction Mixtures” (ACS Med Chem Lett, 2023)",
  "key": {"[1]": {"molecular_target": "T1, von Hippel-Lindau disease tumor suppressor/Bromodomain-containing protein 4 (Homo sapiens, UniProt O60885+P40337)", "T1 sequence (P40337 whole entry, looked up, other chains not shown)": "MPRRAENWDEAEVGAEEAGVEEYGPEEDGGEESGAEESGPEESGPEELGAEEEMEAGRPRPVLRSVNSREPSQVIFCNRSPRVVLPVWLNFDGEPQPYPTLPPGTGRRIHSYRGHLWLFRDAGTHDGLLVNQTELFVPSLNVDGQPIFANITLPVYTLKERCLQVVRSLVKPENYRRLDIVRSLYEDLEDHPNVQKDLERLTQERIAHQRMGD", "experiment": "Protac activity at VHL E3 ligase/BRD4 in HEK293 cells assessed as BRD4 degradation by HiBiT assay", "format": "cell-based"}, "[2]": {"molecular_target": "T1, von Hippel-Lindau disease tumor suppressor/Bromodomain-containing protein 4", "experiment": "Protac activity at VHL E3 ligase/BRD4 in HEK293 cells assessed as BRD4 degradation by HiBiT assay relative to control", "format": "cell-based"}, "HEK293": {"system": "HEK293", "experiment": "Cytotoxicity against HEK293 cells assessed as cell viability by CellTiter-Glo based assay", "format": "toxicity", "settings": "human"}, "[3]": {"molecular_target": "T1, von Hippel-Lindau disease tumor suppressor/Bromodomain-containing protein 4", "experiment": "Protac activity at VHL E3 ligase/BRD4 in HEK293 cells assessed as degradation maximum by HiBiT assay relative to control", "format": "cell-based"}},
  "note": "Active and inactive are the calls of the source. No cut-off for these calls is given here.",
  "data": [
    {"smiles": "Cc1ncsc1-c1ccc(CNC(=O)[C@@H]2C[C@@H](O)CN2C(=O)[C@@H](NC(=O)COCCOCCOCCNC(=O)C[C@@H]2N=C(c3ccc(Cl)cc3)c3c(sc(C)c3C)-n3c(C)nnc32)C(C)(C)C)cc1", "values": [
      {"measurement": "Activity", "setting": "[1]", "result": "Active"},
      {"measurement": "Activity", "setting": "[2]", "result": 25, "unit": "%"},
      {"measurement": "Activity", "setting": "HEK293", "result": "Non-Toxic"}
    ]},
    {"smiles": "Cc1sc2c(c1C)C(c1ccc(Cl)cc1)=N[C@@H](CC(=O)N1CCC3(CCN(CC4CCN(c5ccc6c(c5)CN(C5CCC(=O)NC5=O)C6=O)CC4)CC3)CC1)c1nnc(C)n1-2", "note": "(stereo in doubt; 3P)", "values": [
      {"measurement": "Emax", "setting": "[3]", "result": 80, "unit": "%"}
    ]},
    {"smiles": "Cc1sc2c(c1C)C(c1ccc(Cl)cc1)=N[C@@H](CC(=O)N1CCN(CCCC3CCN(c4ccc5c(c4)CN(C4CCC(=O)NC4=O)C5=O)CC3)CC1)c1nnc(C)n1-2", "note": "(stereo in doubt; 11P)", "values": [
      {"measurement": "Emax", "setting": "[3]", "result": 99, "unit": "%"}
    ]},
    {"smiles": "Cc1sc2c(c1C)C(c1ccc(Cl)cc1)=N[C@@H](CC(=O)N1CCN(CC#Cc3ccc4c(c3)CN(C3CCC(=O)NC3=O)C4=O)CC1)c1nnc(C)n1-2", "note": "(stereo in doubt)", "values": [
      {"measurement": "Emax", "setting": "[3]", "result": 96, "unit": "%"},
      {"measurement": "Activity", "setting": "[1]", "result": "Active"}
    ]},
    {"smiles": "Cc1sc2c(c1C)C(c1ccc(Cl)cc1)=N[C@@H](CC(=O)O)c1nnc(C)n1-2", "values": [
      {"measurement": "Activity", "setting": "HEK293", "result": "Non-Toxic"}
    ]},
    {"smiles": "Cc1sc2c(c1C)C(c1ccc(Cl)cc1)=N[C@@H](CC(=O)N1CCC3(CCN(CC4CCN(c5ccc6c(c5)CN(C5CCC(=O)NC5=O)C6=O)CC4)CC3)CC1)c1nnc(C)n1-2", "note": "(stereo in doubt)", "values": [
      {"measurement": "Emax", "setting": "[3]", "result": 99, "unit": "%"}
    ]},
    {"smiles": "Cc1sc2c(c1C)C(c1ccc(Cl)cc1)=N[C@@H](CC(=O)N1CCN(CC3CCN(c4ccc5c(c4)CN(C4CCC(=O)NC4=O)C5=O)CC3)CC1)c1nnc(C)n1-2", "note": "(stereo in doubt; 1P)", "values": [
      {"measurement": "Emax", "setting": "[3]", "result": 89, "unit": "%"}
    ]},
    {"smiles": "Cc1sc2c(c1C)C(c1ccc(Cl)cc1)=N[C@@H](CC(=O)N1CCN(CCCC3CCN(c4ccc5c(c4)CN(C4CCC(=O)NC4=O)C5=O)CC3)CC1)c1nnc(C)n1-2", "note": "(stereo in doubt)", "values": [
      {"measurement": "Emax", "setting": "[3]", "result": 100, "unit": "%"}
    ]},
    {"smiles": "Cc1sc2c(c1C)C(c1ccc(Cl)cc1)=N[C@@H](CC(=O)NCCCCCC(=O)O)c1nnc(C)n1-2", "values": [
      {"measurement": "Activity", "setting": "HEK293", "result": "Non-Toxic"}
    ]},
    {"smiles": "Cc1ncsc1-c1ccc(CNC(=O)[C@@H]2C[C@@H](O)CN2C(=O)[C@@H](NC(=O)CCCCCCNC(=O)C[C@@H]2N=C(c3ccc(Cl)cc3)c3c(sc(C)c3C)-n3c(C)nnc32)C(C)(C)C)cc1", "note": "(stereo in doubt)", "values": [
      {"measurement": "Emax", "setting": "[3]", "result": 96, "unit": "%"}
    ]},
    {"smiles": "Cc1ncsc1-c1ccc(CNC(=O)[C@@H]2C[C@@H](O)CN2C(=O)[C@@H](NC(=O)CN2CCN(C(=O)CCCCCNC(=O)C[C@@H]3N=C(c4ccc(Cl)cc4)c4c(sc(C)c4C)-n4c(C)nnc43)CC2)C(C)(C)C)cc1", "note": "(stereo in doubt; 8P)", "values": [
      {"measurement": "Emax", "setting": "[3]", "result": 80, "unit": "%"}
    ]},
    {"smiles": "Cc1ncsc1-c1ccc(CNC(=O)[C@@H]2C[C@@H](O)CN2C(=O)[C@@H](NC(=O)CN2CCN(C(=O)CCCCCNC(=O)C[C@@H]3N=C(c4ccc(Cl)cc4)c4c(sc(C)c4C)-n4c(C)nnc43)CC2)C(C)(C)C)cc1", "note": "(stereo in doubt)", "values": [
      {"measurement": "Emax", "setting": "[3]", "result": 101, "unit": "%"}
    ]},
    {"smiles": "Cc1sc2c(c1C)C(c1ccc(Cl)cc1)=N[C@@H](CC(=O)N1CCC(CCN3CCC4(CC3)CCN(c3ccc5c(c3)CN(C3CCC(=O)NC3=O)C5=O)CC4)CC1)c1nnc(C)n1-2", "note": "(stereo in doubt; 2P)", "values": [
      {"measurement": "Emax", "setting": "[3]", "result": 90, "unit": "%"}
    ]},
    {"smiles": "Cc1sc2c(c1C)C(c1ccc(Cl)cc1)=N[C@@H](CC(=O)N1CCC(CCN3CCC4(CC3)CCN(c3ccc5c(c3)CN(C3CCC(=O)NC3=O)C5=O)CC4)CC1)c1nnc(C)n1-2", "note": "(stereo in doubt)", "values": [
      {"measurement": "Emax", "setting": "[3]", "result": 100, "unit": "%"}
    ]}
  ]
}
